US20040131692A1, “Nanoparticles made of protein with coupled apolipoprotein e for penetration of the blood-brain barrier and methods for the production thereof” (priority 2001, published 2004)

Tested on: mice
Experiment: tail-flick test, analgesic effect (nociceptive response) after intravenous injection
Format: in vivo
Details: i.v. dalargin 7.5 mg/kg, comparison data originate from an earlier experiment
Description: The preparation was applied to mice […] at a dosage of 7.5 mg/kg of dalargin. This corresponds to an application amount of 200 μl of the aforementioned preparation per mouse, based on an average body weight of a mouse of 20 g.
The analgesic effect (nociceptive response) was determined by the tail-flick test, in which a hot beam of light is projected onto the tail of the mouse and the time until the mouse draws away its tail is measured. After 10 seconds (=100% MPE) the experiment was truncated so as not to cause injury to the mouse. The maximally possible analgesic effect (MPE) was determined in accordance with the following formula: [formula]
Negative MPE values result if after administration of the administration the mouse draws away its tail before the treatment.
With the aid of dalargin-loaded avidin-modified HSA nanoparticles the analgesic effects indicated in Table 1 were obtained after intravenous injection.

Substance: dalargin [Dalargin solution]
- Analgesic effect [% MPE] (30 min): 10.0 ± 9.8 % MPE
- Analgesic effect [% MPE] (45 min): 9.3 ± 2.8 % MPE
- Analgesic effect [% MPE] (90 min): 4.7 ± 5.1 % MPE
- Analgesic effect [% MPE] (120 min): 2.0 ± 6.1 % MPE
